Assay results as given in article PMC9343605, “Structural insights into ligand recognition and selectivity of somatostatin receptors” (Cell Research, 2022).

What was measured:
SSTR4 [1] = biological target: T1, SSTR4 (Homo sapiens, UniProt P31391, F211A); experiment: cAMP accumulation assay (agonist-induced inhibition of forskolin-stimulated cAMP), SSTR4, HEK293F; format: cell-based; details: SSTR4 mutant F211^5.38A; mean ± SEM;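 note: transiently transfected cells incubated 40 min at room temperature with 4 µM forskolin and graded ligand, cAMP read by LANCE Ultra TR-FRET kit, values normalized to WT receptor per ligand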
T1 construct: expressed in transfected cells; host or cells: HEK293F
Method: (§2) HEK293F cells were transiently transfected with WT or mutant SSTR2/SSTR4 using transfection reagent (PEI MAX 2000, Polysciences) and incubated at 37 °C in 5% CO2. Forty-eight hours after transfection, cells were centrifuged and resuspended in stimulation buffer (Hanks’ balanced salt solution (HBSS) supplemented with 5 mM HEPES, 0.5 mM IBMX and 0.1% (w/v) bovine serum albumin (BSA), pH 7.4) to a density of 200,000 cells/mL and added to 384-well white plates (PerkinElmer, 1000 cells/well). cAMP accumulation was measured by a LANCE Ultra cAMP kit (PerkinElmer) according to the manufacturer’s instructions. In brief, transfected cells were incubated for 40 min in stimulation buffer with 2.5 μL forskolin (SSTR2: 2 μM; SSTR4: 4 μM) and gradient concentration of ligand at RT. The reactions were stopped by addition of lysis buffer containing 5 μL Eu-cAMP tracer and 5 μL ULight-anti-cAMP. Plates were then incubated for 60 min at RT and time-resolved FRET signals were measured at 620 nm and 665 nm by an EnVision multilabel plate reader (PerkinElmer). Data were analyzed in GraphPad PRISM 8 and all values were normalized to the WT for each ligand. All outcomes were repeated at least three times.
(§3) aMutants represent that mutations were introduced separately into the WT receptors and
(§4) transiently expressed in HEK 293F cells.
(§5) bThe EC50 ratio was shown as EC50(mutant)/EC50(WT), indicating the shift between the WT
(§6) and mutant curves, reflecting the effect of the mutations on receptor signaling.
(§7) cData are shown as mean ± S.E.M. from at least three independent experiments
(§8) performed in technical triplicate. One-way ANOVA was performed followed by
(§9) Dunnett’s post-test and compared with WT. The P value was defined as: *P<0.05;
(§10) d The span is defined as the window between the maximal agonists response (Emax) and
(§11) e Sample size; the number of independent experiments performed in technical triplicate.
(§12) f Receptor expression level of HEK 293F cells was determined independently by flow
(§13) cytometry with anti-FLAG antibody and shown as per cent compared to the WT.

SSTR4 [2] = biological target: T2, SSTR4 (Homo sapiens, UniProt P31391, N293A); experiment: as above; format: cell-based; details: SSTR4 mutant N293^7.35A; mean ± SEM
T2 construct: expressed in transfected cells; host or cells: HEK293F
Method: as §2, §3, §4, §5, §6, §7, §8, §9, §10, §11, §12, §13

SSTR4 [3] = biological target: T3, SSTR4 (Homo sapiens, UniProt P31391, V103L); experiment: as above; format: cell-based; details: SSTR4 mutant V103^2.60L; mean ± SEM
T3 construct: expressed in transfected cells; host or cells: HEK293F
Method: as §2, §3, §4, §5, §6, §7, §8, §9, §10, §11, §12, §13

SSTR4 [4] = biological target: T4, SSTR4 (Homo sapiens, UniProt P31391, L297A); experiment: as above; format: cell-based; details: SSTR4 mutant L297^7.39A; mean ± SEM
T4 construct: expressed in transfected cells; host or cells: HEK293F
Method: as §2, §3, §4, §5, §6, §7, §8, §9, §10, §11, §12, §13

SSTR4 [5] = biological target: T5, SSTR4 (Homo sapiens, UniProt P31391, L123A); experiment: as above; format: cell-based; details: SSTR4 mutant L123^3.29A; mean ± SEM
T5 construct: expressed in transfected cells; host or cells: HEK293F
Method: as §2, §3, §4, §5, §6, §7, §8, §9, §10, §11, §12, §13

SSTR4 [6] = biological target: T6, SSTR4 (Homo sapiens, UniProt P31391, N282A); experiment: as above; format: cell-based; details: SSTR4 mutant N282^6.58A; mean ± SEM
T6 construct: expressed in transfected cells; host or cells: HEK293F
Method: as §2, §3, §4, §5, §6, §7, §8, §9, §10, §11, §12, §13

SSTR4 [7] = experiment: as above; format: cell-based, human; details: for EC50 ratio: EC50(mutant)/EC50(WT)
Method: as §2, §3, §4, §5, §6, §7, §8, §9, §10, §11, §12, §13

SSTR4 [8] = details: SSTR4 selective agonist; cited from earlier work
Excerpt: (§1) Along with increased knowledge of the pharmacological effects of these receptors, medical application of SST and its analogs has expanded. A considerable amount of effort has been made to develop new therapeutics for oncology of SSTRs. […] It was found recently that radiolabeled SSTR antagonists produced superi ...

SSTR4 [9] = biological target: SSTR4 (Homo sapiens, UniProt P31391); experiment: cAMP accumulation assay (agonist-induced inhibition of forskolin-stimulated cAMP), SSTR4, HEK293F; format: cell-based; design: expressed in transfected cells; host or cells: HEK293F; details: WT SSTR4, mean ± SEM;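 note: transiently transfected cells incubated 40 min at room temperature with 4 µM forskolin and graded ligand, cAMP read by LANCE Ultra TR-FRET kit, values normalized to WT receptor per ligand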
Method: as §2, §3, §4, §5, §6, §7, §8, §9, §10, §11, §12, §13

SSTR4 [10] = biological target: SSTR4 (Homo sapiens, UniProt P31391, M130A); experiment: as above; format: cell-based; design: expressed in transfected cells; host or cells: HEK293F; details: SSTR4 mutant M130^3.36A; mean ± SEM
Method: as §2, §3, §4, §5, §6, §7, §8, §9, §10, §11, §12, §13

SSTR4 [11] = biological target: SSTR4 (Homo sapiens, UniProt P31391, N199A); experiment: as above; format: cell-based; design: expressed in transfected cells; host or cells: HEK293F; details: SSTR4 mutant N199^ECL2A; mean ± SEM
Method: as §2, §3, §4, §5, §6, §7, §8, §9, §10, §11, §12, §13

SSTR4 [12] = biological target: SSTR4 (Homo sapiens, UniProt P31391, T215A); experiment: as above; format: cell-based; design: expressed in transfected cells; host or cells: HEK293F; details: SSTR4 mutant T215^5.42A; mean ± SEM
Method: as §2, §3, §4, §5, §6, §7, §8, §9, §10, §11, §12, §13

SSTR4 [13] = biological target: SSTR4 (Homo sapiens, UniProt P31391, D126A); experiment: as above; format: cell-based; design: expressed in transfected cells; host or cells: HEK293F; details: SSTR4 mutant D126^3.32A; mean ± SEM
Method: as §2, §3, §4, §5, §6, §7, §8, §9, §10, §11, §12, §13

SSTR4 [14] = biological target: SSTR4 (Homo sapiens, UniProt P31391, Y301A); experiment: as above; format: cell-based; design: expressed in transfected cells; host or cells: HEK293F; details: SSTR4 mutant Y301^7.43A; mean ± SEM
Method: as §2, §3, §4, §5, §6, §7, §8, §9, §10, §11, §12, §13

SSTR4 [15] = biological target: SSTR4 (Homo sapiens, UniProt P31391, Q279A); experiment: as above; format: cell-based; design: expressed in transfected cells; host or cells: HEK293F; details: SSTR4 mutant Q279^6.55A; mean ± SEM
Method: as §2, §3, §4, §5, §6, §7, §8, §9, §10, §11, §12, §13

SSTR4 [16] = biological target: SSTR4 (Homo sapiens, UniProt P31391, Y276A); experiment: as above; format: cell-based; design: expressed in transfected cells; host or cells: HEK293F; details: SSTR4 mutant Y276^6.52A; mean ± SEM
Method: as §2, §3, §4, §5, §6, §7, §8, §9, §10, §11, §12, §13

SSTR4 [17] = biological target: SSTR4 (Homo sapiens, UniProt P31391, V264F); experiment: as above; format: cell-based; design: expressed in transfected cells; host or cells: HEK293F
Method: as §2, §3, §4, §5, §6, §7, §8, §9, §10, §11, §12, §13

SSTR4 [18] = biological target: SSTR4 (Homo sapiens, UniProt P31391, F275A); experiment: as above; format: cell-based; design: expressed in transfected cells; host or cells: HEK293F; details: SSTR4 mutant F275^6.51A; mean ± SEM
Method: as §2, §3, §4, §5, §6, §7, §8, §9, §10, §11, §12, §13

[19] = tested on: growth hormone and glucagon releases; details: full agonist; cited from earlier work
Excerpt: as §1

Sequence of SSTR4 (Homo sapiens, UniProt P31391, V264F) (P31391 1-328 V264F): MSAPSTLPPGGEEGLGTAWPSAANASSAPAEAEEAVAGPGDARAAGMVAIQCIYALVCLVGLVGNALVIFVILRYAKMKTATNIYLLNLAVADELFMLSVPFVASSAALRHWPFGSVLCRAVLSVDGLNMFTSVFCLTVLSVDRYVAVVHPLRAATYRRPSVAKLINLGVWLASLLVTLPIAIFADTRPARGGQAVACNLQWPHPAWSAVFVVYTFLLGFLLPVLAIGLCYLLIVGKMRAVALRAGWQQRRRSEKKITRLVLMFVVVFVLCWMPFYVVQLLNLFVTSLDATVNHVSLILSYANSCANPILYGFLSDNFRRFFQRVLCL
Sequence of SSTR4 (Homo sapiens, UniProt P31391, Y301A) (P31391 whole entry Y301A): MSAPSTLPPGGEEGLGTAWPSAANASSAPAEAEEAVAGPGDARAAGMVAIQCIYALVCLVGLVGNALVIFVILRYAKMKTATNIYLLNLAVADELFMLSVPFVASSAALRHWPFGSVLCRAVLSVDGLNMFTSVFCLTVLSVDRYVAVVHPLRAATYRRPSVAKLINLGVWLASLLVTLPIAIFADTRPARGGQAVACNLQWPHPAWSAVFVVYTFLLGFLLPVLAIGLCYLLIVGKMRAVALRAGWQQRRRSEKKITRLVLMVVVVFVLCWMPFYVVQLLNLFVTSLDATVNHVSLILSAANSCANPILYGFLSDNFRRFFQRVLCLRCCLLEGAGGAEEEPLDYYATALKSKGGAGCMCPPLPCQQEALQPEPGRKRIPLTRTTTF
Sequence of SSTR4 (Homo sapiens, UniProt P31391, Y276A) (P31391 whole entry Y276A): as the sequence (P31391 whole entry Y301A) above, with Y276A, A301Y counted along it
Sequence of SSTR4 (Homo sapiens, UniProt P31391, T215A) (P31391 whole entry T215A): as the sequence (P31391 whole entry Y301A) above, with T215A, A301Y counted along it
T1 sequence (P31391 whole entry F211A): as the sequence (P31391 whole entry Y301A) above, with F211A, A301Y counted along it
T3 sequence (P31391 whole entry V103L): as the sequence (P31391 whole entry Y301A) above, with V103L, A301Y counted along it
Sequence of SSTR4 (Homo sapiens, UniProt P31391) (P31391 whole entry): as the sequence (P31391 whole entry Y301A) above, with A301Y counted along it
T5 sequence (P31391 whole entry L123A): as the sequence (P31391 whole entry Y301A) above, with L123A, A301Y counted along it
T6 sequence (P31391 whole entry N282A): as the sequence (P31391 whole entry Y301A) above, with N282A, A301Y counted along it
T2 sequence (P31391 whole entry N293A): as the sequence (P31391 whole entry Y301A) above, with N293A, A301Y counted along it
Sequence of SSTR4 (Homo sapiens, UniProt P31391, N199A) (P31391 whole entry N199A): as the sequence (P31391 whole entry Y301A) above, with N199A, A301Y counted along it
Sequence of SSTR4 (Homo sapiens, UniProt P31391, M130A) (P31391 whole entry M130A): as the sequence (P31391 whole entry Y301A) above, with M130A, A301Y counted along it
T4 sequence (P31391 whole entry L297A): as the sequence (P31391 whole entry Y301A) above, with L297A, A301Y counted along it
Sequence of SSTR4 (Homo sapiens, UniProt P31391, Q279A) (P31391 whole entry Q279A): as the sequence (P31391 whole entry Y301A) above, with Q279A, A301Y counted along it
Sequence of SSTR4 (Homo sapiens, UniProt P31391, F275A) (P31391 whole entry F275A): as the sequence (P31391 whole entry Y301A) above, with F275A, A301Y counted along it
Sequence of SSTR4 (Homo sapiens, UniProt P31391, D126A) (P31391 whole entry D126A): as the sequence (P31391 whole entry Y301A) above, with D126A, A301Y counted along it

For Cc1ccc(S(=O)(=O)N[C@@H](CCN)C(=O)N[C@@H](Cc2ccccc2)C(N)=O)c2ccccc12 [J-2156], the Span (SSTR4 [1]) was 94±7 % of WT, the “pEC50 ± SEM” value (SSTR4 [1]) was 8.20±0.17 and the Span (SSTR4 [2]) was 87±6 % of WT. For the same molecule, the “pEC50 ± SEM” value (SSTR4 [2]) was 9.30±0.17, the Span (SSTR4 [3]) was 40±4 % of WT and the “pEC50 ± SEM” value (SSTR4 [3]) was 9.00±0.25. The Span (SSTR4 [4]) was 111 ± 8 % of WT, the “pEC50 ± SEM” value (SSTR4 [4]) was 7.59±0.16 and the Span (SSTR4 [5]) was 61±6 % of WT. For the same molecule, the “pEC50 ± SEM” value (SSTR4 [5]) was 9.49±0.23, the Span (SSTR4 [6]) was 62±5 % of WT and the “pEC50 ± SEM” value (SSTR4 [6]) was 9.99±0.21. The EC50 ratio (SSTR4 [7]; Construct 4 SSTR4) was 0.2, the “effect of alanine mutation on agonist potency” value (SSTR4 [7]; SSTR4 F275^6.51 and Y276^6.52) was “significant reduction in agonist potency” and the EC50 ratio (SSTR4 [7]; SSTR4 mutant F211^5.38A) was 33. The EC50 ratio (SSTR4 [7]; SSTR4 mutant L123^3.29A) was 2, the EC50 ratio (SSTR4 [7]; SSTR4 mutant L297^7.39A) was 137 and the EC50 ratio (SSTR4 [7]; SSTR4 mutant M130^3.36A) was 4. For the same molecule, the EC50 ratio (SSTR4 [7]; SSTR4 mutant N199^ECL2A) was 0.3, the EC50 ratio (SSTR4 [7]; SSTR4 mutant N293^7.35A) was 3 and the EC50 ratio (SSTR4 [7]; SSTR4 mutant Q279^6.55A) was 1. The EC50 ratio (SSTR4 [7]; SSTR4 mutant T215^5.42A) was 1, the EC50 ratio (SSTR4 [7]; SSTR4 mutant V103^2.60L) was 5 and the decrease of potency (SSTR4 [7]; SSTR4 mutant V103^2.60 to leucine) was ~ 5 fold. For the same molecule, the EC50 ratio (SSTR4 [7]; SSTR4 mutant Y276^6.52A) was 1016, the EC50 ratio (SSTR4 [7]; SSTR4 mutant Y301^7.43A) was 497 and the EC50 ratio (SSTR4 [7]; WT SSTR4) was 1. The pain relief (SSTR4 [8]) was “mediates pain relief”, the “pEC50 ± SEM” value (SSTR4 [9]; HEK293F, at least three independent experiments) was 9.73±0.08 and the Span (SSTR4 [9]; window between Emax and vehicle) was 100±3 % of WT. The Span (SSTR4 [10]) was 78±6 % of WT, the “pEC50 ± SEM” value (SSTR4 [10]) was 9.12±0.19 and the Span (SSTR4 [11]) was 88±5 % of WT. For the same molecule, the “pEC50 ± SEM” value (SSTR4 [11]) was 10.23±0.14, the Span (SSTR4 [12]) was 92±5 % of WT and the “pEC50 ± SEM” value (SSTR4 [12]) was 9.85±0.14. The Span (SSTR4 [13]) was 23±28 % of WT, the Span (SSTR4 [14]) was 64±7 % of WT and the “pEC50 ± SEM” value (SSTR4 [14]) was 7.02±019. For the same molecule, the Span (SSTR4 [15]) was 98±6 % of WT, the “pEC50 ± SEM” value (SSTR4 [15]) was 9.57±0.17 and the Span (SSTR4 [16]) was 106±6 % of WT. For the same molecule, the “pEC50 ± SEM” value (SSTR4 [16]) was 6.71±0.08, the EC50 (SSTR4 [17]; Construct 4 SSTR4 (V264F, C-terminal truncation)) was 0.03 nM and the Span (SSTR4 [17]; Construct 4 SSTR4, mean ± SEM) was 106±5 % of WT. The “pEC50 ± SEM” value (SSTR4 [17]; Construct 4 SSTR4, mean ± SEM) was 10.46±0.13 and the Span (SSTR4 [18]) was 22±7 % of WT.

In the case of C[C@@H](c1c[nH]c2ccccc12)[C@@H](NC(=O)N1CCC(n2c(=O)[nH]c3ccccc32)CC1)C(=O)N[C@@H](CCCCN)C(=O)OC(C)(C)C [L-054,522], the “effect on growth hormone and glucagon releases” value [19] is given as “inhibitory effect on growth hormone and glucagon releases”.
